In patent US20240116939A1, “CHIRAL OR RACEMIC PYRIMIDINE-FUSED DIAZEPINONE DERIVATIVES, PREPARATION METHOD, AND APPLICATION THEREOF” (SUN YAT-SEN UNIVERSITY, priority 2021, published 2024):

Assays:
PC12 cells [1] = experiment: MTT cell viability of corticosterone (CORT)-induced PC12 cells (in vitro depression model); details: for Cell viability (%): PC12 cells pretreated with 600 μM corticosterone 24 h; for Cell viability (%) / viability at 0.625 µM / Culture time needed to exert effect on cell survival: drug 0.625 uM; for Cell viability (%) / viability at 0.625 µM: 24 h culture, average of three independent experiments; for Cell viability (%) / viability at 0.625 µM / Effect on death rate of cells caused by CORT (cell survival rate): MTT; for viability at 0.625 µM: PC-12, read-out: Cell viability (%), PC12 cells pretreated with 600 μM corticosterone 24 h; for Effect on death rate of cells caused by CORT (cell survival rate): 0.625-20 uM at 12 h, 0.625 uM at 12, 24, 48 h, A and B of FIG. 2; for Culture time needed to exert effect on cell survival: B of FIG. 2
Experimental: PC12 cells are purchased from Procell Life Science & Technology Co., Ltd. (Wuhan, China). All cell culture reagents are purchased from Life Technologies (Grand Island, Nebraska, USA). Cells are cultured in Dulbecco's modified Eagle's medium (Gibco, USA) including 10% fetal calf serum (Gibco, USA) at 37° C. in an incubator including 5% CO2.
Corticosterone (CORT)-induced PC12 cells are usually used to establish the depression model in vitro.
Cell viability is measured by using MTT [3-(4,5-dimethyl-2-thiazolyl)-2,5-diphenyl-2H-tetrazolium bromide].

GR = experiment: Western blotting of GR in CORT-treated PC12 cells; type: cell-based; details: Western blot; 0.625 uM; A and B of FIG. 3
Experimental: (§1) PC12 cells are lysed in RIPA lysis solution including 1% phenylmethylsulfonyl fluoride (PMSF) on ice for 30 minutes, the supernatant solution is collected and centrifuged, and the protein concentration of the supernatant solution is measured by a BCA assay kit (Beyotime, Shanghai). Protein samples are loaded onto 10% SDS-polyacrylamide gel electrophoresis and then further transferred to PVDF membrane (Millipore, MA, USA). The PVDF membrane is blocked with 5% non-fat milk and then incubated with a single primary antibody at 4° C. overnight. After washing with Tris-buffered saline containing Tween-20 (0.1%) (TBST), the PVDF membrane is incubated with secondary antibodies at room temperature. The PVDF membrane is analyzed by ECL reagents (Beyotime, Shanghai) and a BIO-RAD ChemiDoc XRS system. Protein band intensity is performed by Image J software (The National Institutes of Health, Bethesda, MD, USA).

cofilin-1 = experiment: Western blotting of cofilin-1 in CORT-treated PC12 cells; type: cell-based; details: Western blot; 0.625 uM; A and B of FIG. 3
Experimental: as §1

NF-κB = experiment: Western blotting of NF-κB in CORT-treated PC12 cells; type: cell-based; details: Western blot; 0.625 uM; A and B of FIG. 3
Experimental: as §1

PC12 cells [2] = experiment: Hoechst and PI staining of PC12 cell apoptosis; type: cell-based; details: drug 1.0 uM, 48 hours
Experimental: PC12 cell apoptosis is detected by Hoechst and PI staining. Hoechst can bind to cell nucleus of living cells, while PI (propidium iodide) can bind to the nucleuses of dead cells. The PC12 cells are plated in 12-well plates, and after being treated with drugs for 48 hours, the PC12 cells are stained with the nuclear dye Hoechst. The PC12 cells are washed twice with PBS and continued to be incubated with 10 mg/L Hoechst in the incubator for 20 min, For PI staining, the PC12 cells are incubated with a working solution including PI (final concentration 1 μg/mL) at room temperature for 10 min […] The PC12 cells are observed and photographed by a fluorescence microscope (Zeiss, Germany), and the results are shown in FIGS. 2 and 3. Blue fluorescence (white background) represents living cells, and red fluorescence (black background) represents dead cells.

Row | Structure (SMILES) | viability at 0.625 µM (PC12 cells [1]; Rattus norvegicus) [%] | PC12 cell death / apoptosis caused by corticosterone (blue and red fluorescence number) (PC12 cells [2]) | melting point [°C] | also measured
1 | C=C[C@@H]1CN(Cc2ccccc2)C(=O)c2cnc(N3CCOCC3)nc2N1c1ccccc1 [(R)-I-1, (R)-6-benzyl-2-morpholino-9-phenyl-8-vinyl-6,7,8,9-tetrahydro-5H-pyrimido [4,5-e][1,4]diazapine-5-one] | – | – | – | Cell viability (%) (PC12 cells [1]): 82.8 ± 2.5%
2 | C=C[C@@H]1CN(Cc2ccccc2)C(=O)c2cnc(N3CCOCC3)nc2N1Cc1ccccc1 [(R)-I-8, (R)-6,9-dibenzyl-2-morpholinyl-8-vinyl-6,7,8,9-tetrahydro-5H-pyrimido[4,5-e][1.4]diazepine-5-one] | – | – | – | Cell viability (%) (PC12 cells [1]): 82.0 ± 2.0%
3 | C=C[C@@H]1CN(Cc2ccccc2)C(=O)c2cnc(OC)nc2N1c1ccccc1 [(R)-I-9, (R)-6-benzyl-2methoxy-9-phenyl-8-vinyl-6,7,8,9-tetrahydro-5H-pyrimido[4,5-e][1,4]diazepin-5-one] | 85.4 ± 2.9 | can reverse the massive apoptosis of the PC12 cells caused by corticosterone | – | Expression of GR (GR): promote the expression of GR; Overexpression of cofilin-1 (cofilin-1): inhibit the overexpression; Overexpression of NF-κB (NF-κB): inhibit the overexpression
4 | C=C[C@@H]1CN(Cc2ccccc2)C(=O)c2cnc(-c3ccccc3)nc2N1c1ccccc1 [(R)-I-13, (R)-6-benzyl-2,9-diphenyl-8-vinyl-6,7,8,9-tetrahydro-5H-pyrimido[4,5-e][1,4]diazepine-5-one] | 81.9 ± 4.5 | – | 212.7 to 213.6 | –
5 | C=C[C@@H]1CN(Cc2ccccc2)C(=O)c2cnc(Nc3ccccc3)nc2N1c1ccccc1 [(R)-I-18, (R)-6-benzyl-9-phenyl-2-anilino-8-vinyl-6,7,8,9-tetrahydro-5H-pyrimido[4,5-e][1,4]diazepine-5-one] | 75.2 ± 4.4 | – | 232.1 to 232.3 | –
6 | C=C[C@H]1CN(Cc2ccccc2)C(=O)c2cnc(N3CCOCC3)nc2N1CCC [(S)-I-5, (S)-6-benzyl-2-morpholino-9-propyl-8-vinyl-6,7,8,9-tetrahydro-5H-pyrimido[4,5-e][1,4]diazepine-5-one] | 89.4 ± 2.9 | – | – | –
7 | C=C[C@H]1CN(Cc2ccccc2)C(=O)c2cnc(C)nc2N1c1ccccc1 [(S)-I-10, (S)-6-benzyl-2-methyl-9-phenyl-8-vinyl-6,7,8,9-tetrahydro-5H-pyrimido[4,5-e][1,4]diazepin-5-one] | 97.8 ± 3.4 | higher number of blue fluorescence than (R)-I-9 | – | –
8 | C=C[C@H]1CN(Cc2ccccc2)C(=O)c2cnc(N3CCN(C)CC3)nc2N1c1ccccc1 [(S)-I-11, (S)-6-benzyl-2-(4-methyl-1-piperazinyl)-9-phenyl-8-vinyl-6,7,8,9-tetrahydro-5H-pyrimido[4,5-e]diazepine-5-one] | – | can reduce cell death | – | Effect on death rate of cells caused by CORT (cell survival rate) (PC12 cells [1]): can effectively reduce the death rate of cells caused by CORT; Culture time needed to exert effect on cell survival (PC12 cells [1]): 12 h
9 | C=C[C@H]1CN(Cc2ccccc2)C(=O)c2cnc(N3CCCC3)nc2N1c1ccccc1 [(S)-I-12, (S)6-benzyl-9-phenyl-2-(1-tetrahydropyrrolyl)-8-vinyl-6,7,8,9-tetrahydro-5H-pyrimido[4,5-e][1,4]diazepin-5-one] | 98.6 ± 3.1 | – | 153.8 to 154.3 | –
10 | C=C[C@H]1CN(Cc2ccccc2)C(=O)c2cnc(-c3cccc4ccccc34)nc2N1c1ccccc1 [(S)-I-14, (S)-6-benzyl-2-(1-naphthyl)-9-phenyl-8-vinyl-6,7,8,9-tetrahydro-5H-pyrimido[4,5-e][1,4]diazepin-5-one] | 88.1 ± 4.7 | – | 227.2 to 227.4 | Survival rate of PC12 cells, comparison of chiral configurations (PC12 cells [1]; 0.625 uM, B, C and D of FIG. 4): can increase the survival rate better than their corresponding racemates
11 | C=C[C@H]1CN(Cc2ccccc2)C(=O)c2cnc(-c3cnccc3OC)nc2N1c1ccccc1 [(S)-I-17, (S)-6-benzyl-2-(4-methoxy-3-pyridyl)-9-phenyl-8-vinyl-6,7,8,9-tetrahydro-5H-pyrimido[4,5-e][1,4]diazepin-5-one] | 96.9 ± 2.7 | can reverse the massive apoptosis of the PC12 cells caused by corticosterone | – | Expression of GR (GR): promote the expression of GR; Overexpression of cofilin-1 (cofilin-1): inhibit the overexpression; Overexpression of NF-κB (NF-κB): inhibit the overexpression
12 | C[C@]12C[C@H](O)[C@H]3[C@@H](CCC4=CC(=O)CC[C@@]43C)[C@@H]1CC[C@@H]2C(=O)CO [CORT, corticosterone, reference compound] | – | – | – | Cell viability (%) with corticosterone alone (PC12 cells [1]; PC12 cells, 600 μM corticosterone, 24 hours, no drug (model group)): 60.5 ± 3.6%; viability at 600 µM (PC12 cells [1]; Rattus norvegicus, PC-12, 24 h, read-out: Cell viability (%) with corticosterone alone, PC12 cells, 600 μM corticosterone, 24 hours, no drug (model group)): 60%
13 | C=C[C@@H]1CN(Cc2ccccc2)C(=O)c2cnc(-c3ccco3)nc2N1c1ccccc1 [Compound I-16, (R)-6-benzyl-2-(2-furyl)-9-phenyl-8-vinyl-6,7,8,9-tetrahydro-5H-pyrimido[4,5-e][1,4]diazepin-5-one] | – | – | 178.5 to 178.6 | –
14 | CNCCC(Oc1ccc(C(F)(F)F)cc1)c1ccccc1 (stereo not drawn) [fluoxetine, reference compound] | 76.8 ± 6.4 | can reduce cell death | – | Effect on death rate of cells caused by CORT (cell survival rate) (PC12 cells [1]): can effectively reduce the death rate of cells caused by CORT; Culture time needed to exert effect on cell survival (PC12 cells [1]): 48 h; Expression of GR (GR): promote the expression of GR; Overexpression of cofilin-1 (cofilin-1): inhibit the overexpression
